Measurements: patent publication US20100003342A1, “Aqueous solution and method of prolonging life of residual chlorine in aqueous solution” (priority 2006, published 2010)
Where two headings read alike, the source gives them in different places.

Assay type: physicochemical
Details: KI method

Row | Structure (SMILES) | Residual chlorine concentration (neutral pH environment) | Residual chlorine concentration (perchloric acid aqueous solution)
1 | [Na+].[O-][Cl+][O-] [NaClO2] | several | –
2 | [O-][Cl+3]([O-])([O-])O [perchloric acid] | – | zero
